Measured values as given in patent US4965280A, “Antifungal carbinols” (E. I. Du Pont de Nemours and Company, priority 1989, dated 1990).

Key:
VELVETLEAF = experiment: Test D; format: in vivo, Abutilon theophrasti
Method: (§1) The Corn and Sorghum Herbicide Test included the following species in both the preemergence and postemergence evaluations:
(§2) Postemergence plantings were grown in Sassafras sandy loam soil. Corn and soybeans were grown in separate 25 cm diameter containers. Sorghum and the seven grass weed species were grown in two 18 cm diameter containers, 4 species per container. The seven broadleaf weed species were also grown in two 18 cm diameter containers, 4 species in one container, 3 species in the second container. One additional planting of corn in an 18 cm diameter container was made. The soil surface of this additional container of corn was covered with the absorbent, perlite, before spray treatment so that test chemicals would enter the plant only via the foliage. The plants were grown 10-21 days, dependent upon the species and then sprayed postemergence with the test chemicals dissolved in a nonpytotoxic solvent.
(§3) Preemergence plantings were grown in fertilized Tama silt loam soil. These plantings are identical to those described in the postemergence section, with the exception of the corn planting having perlite covering the soil surface. These plantings were made the day of or the day before spraying the test chemicals dissolved in a nonphytotoxic solvent.
(§4) Treated plants and controls were maintained in the greenhouse for 2 to 4 weeks. Visual planting response ratings were made on a percentage scale of 0 to 100 in comparison with a control where 0=no injury, and 100=death.

IVY MORNINGLORY = experiment: Test D; format: in vivo, Ipomoea hederacea
PERLITE CORN = experiment: Test D, soil covered with perlite; format: in vivo, Zea mays
Method: as §1, §2, §4

BARNYARDGRASS = experiment: Test D; format: in vivo, Echinochloa crus-galli
Method: as §1, §2, §3, §4

JIMSONWEED = experiment: Test D; format: in vivo, Datura stramonium
GIANT FOXTAIL = experiment: Test D; format: in vivo, Setaria faberii
REDROOT PIGWEED = experiment: Test D; format: in vivo, Amaranthus retroflexus
G4646 CORN = experiment: Test D Corn and Sorghum Herbicide Test; format: in vivo, Zea mays
G522 SORGHUM = experiment: Test D; format: in vivo, Sorghum bicolor
LARGE CRABGRASS = experiment: Test D; format: in vivo, Digitaria sanguinalis
JOHNSONGRASS = experiment: Test D; format: in vivo, Sorghum halepense

C=C(c1ccccc1)C(O)(Cn1cncn1)c1ccc(Cl)cc1Cl (centres unmarked) [Example 50, 2-(2,4-Dichlorophenyl)-3-phenyl-1-(1H-1,2,4-triazol-1-yl)-3-buten-2-ol]
plant response (VELVETLEAF; POSTEMERGENCE 0250 GM/HA): 0% | plant response (VELVETLEAF; POSTEMERGENCE 0500 GM/HA): 25% | plant response (VELVETLEAF; PREEMERGENCE 0064 GM/HA): 0% | plant response (VELVETLEAF; PREEMERGENCE 0125 GM/HA): 25% | plant response (VELVETLEAF; PREEMERGENCE 0250 GM/HA): 40% | plant response (VELVETLEAF; PREEMERGENCE 0500 GM/HA): 65% | plant response (IVY MORNINGLORY; POSTEMERGENCE 0250 GM/HA): 20% | plant response (IVY MORNINGLORY; POSTEMERGENCE 0500 GM/HA): 60% | plant response (IVY MORNINGLORY; PREEMERGENCE 0064 GM/HA): 0% | plant response (IVY MORNINGLORY; PREEMERGENCE 0125 GM/HA): 30% | plant response (IVY MORNINGLORY; PREEMERGENCE 0250 GM/HA): 40% | plant response (IVY MORNINGLORY; PREEMERGENCE 0500 GM/HA): 65% | plant response (PERLITE CORN; POSTEMERGENCE 0250 GM/HA): 0% | plant response (PERLITE CORN; POSTEMERGENCE 0500 GM/HA): 0% | plant response (BARNYARDGRASS; POSTEMERGENCE 0250 GM/HA): 0% | plant response (BARNYARDGRASS; POSTEMERGENCE 0500 GM/HA): 0% | plant response (BARNYARDGRASS; PREEMERGENCE 0064 GM/HA): 0% | plant response (BARNYARDGRASS; PREEMERGENCE 0125 GM/HA): 0% | plant response (BARNYARDGRASS; PREEMERGENCE 0250 GM/HA): 20% | plant response (BARNYARDGRASS; PREEMERGENCE 0500 GM/HA): 45% | plant response (JIMSONWEED; POSTEMERGENCE 0250 GM/HA): 20% | plant response (JIMSONWEED; POSTEMERGENCE 0500 GM/HA): 45% | plant response (JIMSONWEED; PREEMERGENCE 0064 GM/HA): 0% | plant response (JIMSONWEED; PREEMERGENCE 0125 GM/HA): 25% | plant response (JIMSONWEED; PREEMERGENCE 0250 GM/HA): 50% | plant response (JIMSONWEED; PREEMERGENCE 0500 GM/HA): 70% | plant response (GIANT FOXTAIL; POSTEMERGENCE 0250 GM/HA): 0% | plant response (GIANT FOXTAIL; POSTEMERGENCE 0500 GM/HA): 0% | plant response (GIANT FOXTAIL; PREEMERGENCE 0064 GM/HA): 20% | plant response (GIANT FOXTAIL; PREEMERGENCE 0125 GM/HA): 65% | plant response (GIANT FOXTAIL; PREEMERGENCE 0250 GM/HA): 75% | plant response (GIANT FOXTAIL; PREEMERGENCE 0500 GM/HA): 85% | plant response (REDROOT PIGWEED; POSTEMERGENCE 0250 GM/HA): 65% | plant response (REDROOT PIGWEED; POSTEMERGENCE 0500 GM/HA): 95% | plant response (REDROOT PIGWEED; PREEMERGENCE 0064 GM/HA): 0% | plant response (REDROOT PIGWEED; PREEMERGENCE 0125 GM/HA): 40% | plant response (REDROOT PIGWEED; PREEMERGENCE 0250 GM/HA): 85% | plant response (REDROOT PIGWEED; PREEMERGENCE 0500 GM/HA): 100% | plant response (G4646 CORN; POSTEMERGENCE 0250 GM/HA): 0% | plant response (G4646 CORN; POSTEMERGENCE 0500 GM/HA): 20% | plant response (G4646 CORN; PREEMERGENCE 0064 GM/HA): 0% | plant response (G4646 CORN; PREEMERGENCE 0125 GM/HA): 0% | plant response (G4646 CORN; PREEMERGENCE 0250 GM/HA): 0% | plant response (G4646 CORN; PREEMERGENCE 0500 GM/HA): 0% | plant response (G522 SORGHUM; POSTEMERGENCE 0250 GM/HA): 0% | plant response (G522 SORGHUM; POSTEMERGENCE 0500 GM/HA): 0% | plant response (G522 SORGHUM; PREEMERGENCE 0064 GM/HA): 0% | plant response (G522 SORGHUM; PREEMERGENCE 0125 GM/HA): 0% | plant response (G522 SORGHUM; PREEMERGENCE 0250 GM/HA): 0% | plant response (G522 SORGHUM; PREEMERGENCE 0500 GM/HA): 0% | plant response (LARGE CRABGRASS; POSTEMERGENCE 0250 GM/HA): 70% | plant response (LARGE CRABGRASS; POSTEMERGENCE 0500 GM/HA): 100% | plant response (LARGE CRABGRASS; PREEMERGENCE 0064 GM/HA): 40% | plant response (LARGE CRABGRASS; PREEMERGENCE 0125 GM/HA): 75% | plant response (LARGE CRABGRASS; PREEMERGENCE 0250 GM/HA): 100% | plant response (LARGE CRABGRASS; PREEMERGENCE 0500 GM/HA): 100% | plant response (JOHNSONGRASS; POSTEMERGENCE 0250 GM/HA): 20% | plant response (JOHNSONGRASS; POSTEMERGENCE 0500 GM/HA): 40% | plant response (JOHNSONGRASS; PREEMERGENCE 0064 GM/HA): 35% | plant response (JOHNSONGRASS; PREEMERGENCE 0125 GM/HA): 70% | plant response (JOHNSONGRASS; PREEMERGENCE 0250 GM/HA): 90% | plant response (JOHNSONGRASS; PREEMERGENCE 0500 GM/HA): 95%
